The text below walks through data of the METLIN SMRT retention time set (Domingo-Almenara et al. 2019).

Molecules are shown by their SMILES.

A short description of this series: gradient 5% acetonitrile 3 min, to 50% in 2 min, to 85% in 15 min, held 3 min, 100 µL/min. The note with it: column: Zorbax Extend-C18 2.1 x 50 mm; eluents: water / acetonitrile, 0.1% formic acid. An outline of the steps: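 The system's dead and dwell volumes were 40 μL and 900 μL, with a Zorbax Extend-C18 column (2.1 × 50 mm, 1.8 μm) run at 100 μL/min in water and acetonitrile containing 0.1% formic acid each. Pure standards were analyzed in mixtures of ~100 molecules by HPLC–quadrupole time-of-flight mass spectrometry in positive and negative ionization mode. Retention time was assigned from computationally picked, manually inspected adduct peaks.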
In turn, `COCCN1C(=O)CCc2cc(NS(=O)(=O)c3cc(OC)ccc3OC)ccc21` came in with an RP-LC retention time of 724 s.
The value for `Cc1ccc2c(c1)N(CCC(C)C)N=C(C(=O)N1CCCCC1)S2(=O)=O` was 1080 s; that for `Cc1c(C(=O)NC2CCCCC2)sc2ncn(CC(=O)N3CC(C)CC(C)C3)c(=O)c12` (centres undefined) was 965 s.
To `Cc1cc(C)c(C(=O)N2CCC(CC(=O)NCc3cccc(Cl)c3)CC2)[nH]1` belongs 804 s.
For the compound `Cc1ccc2c(Sc3ccc(Cl)cc3)c(C(=O)N3CCN(c4ccccn4)CC3)[nH]c2c1`, the RP-LC retention time came out at 894 s.
To `Cc1nc(C)c(C(=O)NCC23CCC=C2N(C)C(=O)CC3)s1` (centres undefined) belongs 651 s; to `Cc1nnc(-c2ccc3ccn(CC(=O)NCCc4ccc(S(N)(=O)=O)cc4)c3c2)o1`, 648 s; to `CCn1cc(C(=O)N2C[C@@H](COCC3CC3)[C@H](c3nc(C)no3)C2)cn1`, 714 s.
Take `CC(C)(C)c1ccc(-c2noc(Cn3c(=O)n(-c4ccccc4F)c(=O)c4sccc43)n2)cc1`: the RP-LC retention time turned out to be 1220 s.
`Cc1cccc2nc(-c3c(F)cccc3Cl)c(Nc3ccc4c(c3)OCCO4)n12` displayed an RP-LC retention time of 678 s.
For the compound `CC(C)NC(=O)N(C1CCOCC1)C1CN(C(=O)c2ccnn2C)C1`, the RP-LC retention time amounted to 576 s.
The value for `COc1cc(NS(=O)(=O)c2ccc(-c3c(C)noc3C)cc2)cc(OC)c1` was 889 s.
The value for `CC1CCN(C(=O)CC2CCN(S(=O)(=O)c3ccc(Cl)s3)CC2)CC1` was 1040 s; that for `CC(C)CN1C(=O)CCc2cc(NS(=O)(=O)c3ccccc3)ccc21` was 844 s.
To `O=C(NCc1cccs1)C1CCN(Cc2cc3ccccc3n2Cc2ccc(F)cc2)CC1` belongs 783 s; to `CC(C)C(=O)Nc1nnc2n1CCS2`, 519 s; to `CCN1C(=O)c2cccnc2Sc2cc(NC(=O)c3ccc(Cl)cc3)ccc21`, 907 s.
In turn, `COc1ccc(NC(=O)c2ccc(-n3cnc(NC(=O)C4CC4)c3)cc2)c(OC)c1` registered an RP-LC retention time of 726 s.
Consider `O=C(NCC1(CO)CC1)c1c(F)cccc1Cl`, for which the RP-LC retention time turned out to be 609 s.
`COc1cccc(-c2ccc3nc(N4CCC(C(=O)NC5CC5)CC4)sc3n2)c1`: the RP-LC retention time stood at 861 s.
To `O=C1NC2(CCN(C(=O)c3cccc(Cl)c3)CC2)N=C1c1cccc(F)c1` belongs 888 s; to `Cc1nnc(N2CCCC(C(=O)NCc3ccc(F)cc3)C2)c2nn(-c3ccc(Cl)cc3)c(C)c12` (centres undefined), 771 s; to `COc1ccc2nc(CN3CCN(S(=O)(=O)N(C)C)CC3)[nH]c2c1`, 556 s.
To `O=C(NCc1csc(-c2cccs2)n1)C1CCN(C(=O)c2cccc(Cl)c2)CC1` belongs 802 s.
Turning to `Cc1cc(C)n(-c2nc(CC(=O)Nc3ccccc3F)cs2)n1`, the RP-LC retention time was determined as 961 s.
To `CCC1Oc2ccc(S(=O)(=O)N3CCC(C(=O)N(C)c4cccc(C)c4)CC3)cc2NC1=O` (centres undefined) belongs 872 s; to `CN1C(=O)CCCCC1C(=O)N1CCc2ccccc21` (centres undefined), 721 s; to `Cc1[nH]c(C)c(S(=O)(=O)N2CCC(C(=O)Nc3ccccc3F)CC2)c1C(=O)N1CCCC1`, 720 s.
To `CCn1c(=O)n(CC(=O)NCCC(C)C)c(=O)c2cnc(-c3ccccc3)nc21` belongs 678 s; to `CCC(C)NC(=O)c1n[nH]c2c1CCCC2` (centres undefined), 718 s; to `O=C(NCCc1c[nH]c2ccccc12)c1cc2cccnc2n(Cc2ccc(F)cc2)c1=O`, 1090 s.
Consider `COCCNC(=O)C1COC2(CCCCC2)N1C(=O)c1cccc(C(F)(F)F)c1` (centres undefined), for which the RP-LC retention time was determined as 814 s.
To `COc1ccc(CC(=O)N2CCc3cn(C)c4cccc(c34)C2)cc1` belongs 946 s; to `Cc1ccccc1Cn1nc2ccc(S(=O)(=O)N3CCCC3)cn2c1=O`, 891 s; to `CN1CCN(CCNC(=O)c2ccc3nc(-c4ccc(Cl)cc4)cn3c2)CC1`, 579 s.
To `CC(C)n1cnc(S(=O)(=O)N2CCCC(C(=O)N3CCN(c4ccccc4)CC3)C2)c1` (centres undefined) belongs 766 s; to `CCOc1ccc(-c2noc(Cn3c(=O)n(-c4ccccc4)c(=O)c4sccc43)n2)cc1OC`, 910 s.
For `Cc1sc(NC(=O)CCc2ccccc2)nc1-c1ccc2c(c1)NC(=O)CO2`, the RP-LC retention time is 888 s.
`O=C(CSCc1ccccc1)N1CC(c2nc3ccccc3[nH]2)C1` gave an RP-LC retention time of 573 s.
To `O=C(NC1CCCCC1)C1CCN(c2cncnc2N2CCCC2)CC1` belongs 637 s; to `CCCCN1N=C(C(=O)N2CCOCC2)S(=O)(=O)c2cc(Cl)ccc21`, 862 s; to `Cc1ccc(-c2cc3c(=O)n(Cc4nc(-c5ccc(Br)cc5)no4)ncn3n2)c(C)c1`, 1340 s.
Compound `COc1cccc(OCC(=O)Nc2ccc3c(c2)N(C(=O)c2ccco2)CCC3)c1` had an RP-LC retention time of 877 s.
In the case of `O=C(Cn1c(=O)c2cccn2c2ccccc21)NCc1cccs1`, the RP-LC retention time was 763 s.
`CC1CCN(c2nc(-c3ccc(C(C)(C)C)cc3)nc3ccccc23)CC1` yielded an RP-LC retention time of 1070 s.
The compound `O=C(Cc1cccc(F)c1)Nc1cc(-c2cccs2)no1` had an RP-LC retention time of 947 s.
To `CCn1c(CC2C(=O)Nc3ccc(Br)cc32)nc2ccccc2c1=O` (centres undefined) belongs 825 s.
`CN1CCN(CCCNC(=O)Cn2c3ccccc3c3cnn(C)c(=O)c32)CC1` registered an RP-LC retention time of 560 s.
The compound `CC(C)NCc1ccc(-c2cc(Cl)ccc2Cl)o1` displayed an RP-LC retention time of 709 s.
The value for `CC(=O)N1CCOc2cc(S(=O)(=O)N3CCCCCC3c3cccc(F)c3)ccc21` (centres undefined) was 999 s; that for `CCN1CCC(O)(/C=C/c2ccc(C)cc2)C(C(=O)/C=C/c2ccc(C)cc2)C1` (centres undefined) was 767 s.
To `Cc1ccc(-c2noc(Cc3nnc(-c4cccc(F)c4)o3)n2)cc1` belongs 1070 s; to `CCC(=O)N1CCc2cc(C)c(S(=O)(=O)NC(C)C)cc21`, 796 s; to `CNC(=O)[C@@H]1C[C@H](Oc2ccccc2)CN1C(=O)Cn1c(=O)oc2ccccc21`, 732 s.
To `CCCCNC(=O)Cc1c(C)n(C)c2nc(-c3ccccc3)nn2c1=O` belongs 665 s.
`CCNc1cc(N2CCCC(CCC(=O)N3CCN(C(=O)c4ccco4)CC3)C2)ncn1` (centres undefined) returned an RP-LC retention time of 610 s.
For the compound `CCCN(CC(=O)N(Cc1ccco1)CC1CCCO1)C(=O)Cc1ccc(F)cc1` (centres undefined), the RP-LC retention time was found to be 872 s.
The value for `Cc1nc(-c2cn(C(C)C)c3ncccc23)sc1C(=O)N1CCC(C)CC1` was 999 s; that for `CCc1c(C(=O)O)nnn1-c1ccc(Cl)cc1` was 748 s.
